Test results from PMC10246721, “Cryo-EM structures for the Mycobacterium tuberculosis iron-loaded siderophore transporter IrtAB” (Protein & Cell, 2022).

Assays:
[1] = molecular target: T1, IrtABΔSID (SID-truncated IrtAB) (Mycobacterium tuberculosis, UniProt P9WQJ7+P9WQJ9)
T1 construct: gene irtA

[2] = molecular target: T1, IrtABΔSID (SID-truncated IrtAB); remark: listed apart in the source

In the case of `Nc1ncnc2c1ncn2[C@@H]1O[C@H](COP(=O)(O)OP(=O)(O)O)[C@@H](O)[C@H]1O` [ADP], the cryo-EM structure [1] is reported as “we also solved the structure of IrtABΔSID in complex with ADP”.
`Nc1ncnc2c1ncn2[C@@H]1O[C@H](COP(=O)(O)OP(=O)(O)OP(=O)(O)O)[C@@H](O)[C@H]1O` [ATP] was tested, and the “ATPase activity, phosphate release (MAK-113)” value [2] was “ATPase activity of IrtABΔSID is comparable to that of the wild-type (WT) protein”.
